Test results as given in patent US10206904B2, “Licofelone derivatives and methods of use” (The Board of Regents of the University of Oklahoma, priority 2015, dated 2019).
Where “and” joins values, the source holds several entries; their conditions need not be identical. Equal values may be shown once. Entries after “also recorded” stand apart in the source; their conditions may differ. Read-outs that look alike come from different tables or passages of the source.

Assays:
[1] = system: AOM plus DSS induced colonic inflammation; details: for AOM-DSS-Induced Inflammation Score: two weeks, male F344 rats
Protocol: Male F344 rats at 8 weeks of age treated with AOM (15 mg/Kg BW) and exposed to 2% DSS for three days. […] Further, the inflammation was scored by following below criteria:
Inflammation Score based on histological observations using the modified Sydney classification for colonic inflammation:
Following score criteria has been applied: • i. Score 0: No inflammation or changes in the colonic crypt morphology • ii. Score 1. Presence of neutrophil infiltration and chronic lymphocytic inflammation. • iii. Score 2. Surface epithelial damage, mild atrophy, lymphoid follicles • iv. Score 3: Severe atrophy and intestinal metaplasia.

[2] = stored in food cups for seven days
Protocol: Then aliquots of samples taken from the top, middle and bottom portions of the diets were analyzed for agents homogeneity of the experimental diets. […] Based on this information, frequency of preparation of experimental diets was once a week, and food cups were changed 3 times a week.

[3] = system: inflammatory cytokines and receptors; details: 800 ppm in diet, AOM-induced rat colon tumors
Protocol: Colonic tumors (CTs) were induced by colon specific carcinogen Azoxymethane (15 mg/kg by wt, once weekly for 2 weeks) in F344 rats at 8 weeks' age. […] Rats were killed 36 weeks after second AOM and analyzed for inflammatory cytokines and receptors and compared with control diet fed rat colonic tumors.

[4] = for Major Organ Toxicity / Ulceration (Grade) Colon / Ulceration (Grade) Small Intestine / Ulceration (Grade) Stomach / Liver enzymes ALKP / Liver enzymes ALT / Liver enzymes AST / Liver enzymes LDH: male C57 mice; for Liver enzymes ALKP / Liver enzymes ALT / Liver enzymes AST / Liver enzymes LDH: Mean ± SEM
Protocol: Body weights and symptoms of toxicity were recorded twice weekly for 6 weeks. […] All organs were examined grossly for any abnormalities upon necropsy. Livers, kidney, stomach, intestinal tract, and blood were obtained from the animals and analyzed for Liver enzyme profile, GI ulceration, and levels of test agents.
All animals found dead will be necropsied to confirm that the most likely cause of death was due to intestinal ulcerations.

AOM-induced colon tumors = details: 200 ppm in diet, AOM-treated male F344 rats
Protocol: After 42 weeks of experimental diet feeding and total 52 weeks of experimental duration, the rats were necropsied. After necropsy of the rats, the colonic tumors were analyzed histologically. Histopathological evaluation colonic tumor has been completed by two pathologists independently. Colonic tumors were histopathologically classified to adenomas or adenocarcinomas either exophytic (non-invasive) or endophytic (invasive).
Colonic tumors (CTs) were induced by colon specific carcinogen, azoxymethane (AOM) (15 mg/kg by wt, once weekly for 2 weeks) in F344 rats at 8 weeks' age. […] Rats were killed by CO2 asphyxiation 36 weeks after second AOM and the colons were removed, rinsed in PBS, opened longitudinally, and flattened on a filter paper. The location and size of each tumor were noted. Tumors were removed, snap frozen, or fixed in 10% buffered formalin for 24 hours and transferred to 80% ethanol for histopathological analysis. The number and type of colon tumors (adenoma and adenocarcinoma) were analyzed histologically blinded to treatment groups and compared with control diet fed rat colonic tumors.
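Wherever Major Organ Toxicity is given: gross examination of all organs at necropsy, with liver enzyme profile and GI ulceration assessed in collected tissues and blood.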
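Wherever Ulceration (Grade) Colon is given: gross examination of all organs at necropsy, with liver enzyme profile and GI ulceration assessed in collected tissues and blood.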
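Wherever Ulceration (Grade) Small Intestine is given: gross examination of all organs at necropsy, with liver enzyme profile and GI ulceration assessed in collected tissues and blood.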
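Wherever Ulceration (Grade) Stomach is given: gross examination of all organs at necropsy, with liver enzyme profile and GI ulceration assessed in collected tissues and blood.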

CC1(C)Cc2c(-c3ccccc3)c(-c3ccc(Cl)cc3)c(CC(=O)NCC(=O)O)n2C1 [LFA-9, licofelone-glycine]
AOM-DSS-Induced Inflammation Score ([1]; 100 ppm in diet): 1 | AOM-DSS-Induced Inflammation Score ([1]; 200 ppm in diet): 0 to 1 | AOM-DSS-Induced Inflammation Score ([1]; 400 ppm in diet): 0 | AOM-DSS-Induced Inflammation Score ([1]; 600 ppm in diet): 0 | AOM-DSS-Induced Inflammation Score ([1]; 800 ppm in diet): 0 | infiltration of inflammatory cells in colonic mucosa and submucosa ([1]; >100 ppm in diet, AOM-DSS rats): significantly suppressed infiltration of inflammatory cells | inflammation ([1]; >100 ppm in diet, AOM/DSS rats): completely blocked inflammation | inflammation score ([1]; all rats fed LFA-9, lowest to highest doses (100-800 ppm)): Score 1 (lowest to highest doses) or no inflammation | toxicity in male F344 rats ([1]; up to 800 ppm in diet): did not induce significant toxicity | stability in diet [2]: > 96% | inflammatory cytokines and their receptors (PCR array) in colon tumors versus control [3]: significantly decreased | Major Organ Toxicity ([4]; 100 ppm in diet, 6 weeks): None | Ulceration (Grade) Colon ([4]; 100 ppm in diet, 6 weeks): Grade 0 | Ulceration (Grade) Small Intestine ([4]; 100 ppm in diet, 6 weeks): Grade 0 | Ulceration (Grade) Stomach ([4]; 100 ppm in diet, 6 weeks): Grade 0 | Liver enzymes ALKP ([4]; 100 ppm in diet, 6 weeks): 178 ± 32 units/L | Liver enzymes ALT ([4]; 100 ppm in diet, 6 weeks): 82 ± 15 units/L | Liver enzymes AST ([4]; 100 ppm in diet, 6 weeks): 75 ± 8.5 units/L | Liver enzymes LDH ([4]; 100 ppm in diet, 6 weeks): 408 ± 28 units/L | Major Organ Toxicity ([4]; 200 ppm in diet, 6 weeks): None | Ulceration (Grade) Colon ([4]; 200 ppm in diet, 6 weeks): Grade 0 | Ulceration (Grade) Small Intestine ([4]; 200 ppm in diet, 6 weeks): Grade 0 | Ulceration (Grade) Stomach ([4]; 200 ppm in diet, 6 weeks): Grade 0 | Liver enzymes ALKP ([4]; 200 ppm in diet, 6 weeks): 184 ± 30 units/L | Liver enzymes ALT ([4]; 200 ppm in diet, 6 weeks): 98 ± 13 units/L | Liver enzymes AST ([4]; 200 ppm in diet, 6 weeks): 83 ± 10 units/L | Liver enzymes LDH ([4]; 200 ppm in diet, 6 weeks): 394 ± 19 units/L | Major Organ Toxicity ([4]; 400 ppm in diet, 6 weeks): None | Ulceration (Grade) Colon ([4]; 400 ppm in diet, 6 weeks): Grade 0 | Ulceration (Grade) Small Intestine ([4]; 400 ppm in diet, 6 weeks): Grade 0 | Ulceration (Grade) Stomach ([4]; 400 ppm in diet, 6 weeks): Grade 0 | Liver enzymes ALKP ([4]; 400 ppm in diet, 6 weeks): 187 ± 38 units/L | Liver enzymes ALT ([4]; 400 ppm in diet, 6 weeks): 93 ± 15 units/L | Liver enzymes AST ([4]; 400 ppm in diet, 6 weeks): 68 ± 7.5 units/L | Liver enzymes LDH ([4]; 400 ppm in diet, 6 weeks): 379 ± 29 units/L | Major Organ Toxicity ([4]; 800 ppm in diet, 6 weeks): None | Ulceration (Grade) Colon ([4]; 800 ppm in diet, 6 weeks): Grade 0 | Ulceration (Grade) Small Intestine ([4]; 800 ppm in diet, 6 weeks): Grade 0 | Ulceration (Grade) Stomach ([4]; 800 ppm in diet, 6 weeks): Grade 0 | Liver enzymes ALKP ([4]; 800 ppm in diet, 6 weeks): 181 ± 27 units/L | Liver enzymes ALT ([4]; 800 ppm in diet, 6 weeks): 104 ± 13 units/L | Liver enzymes AST ([4]; 800 ppm in diet, 6 weeks): 82 ± 11 units/L | Liver enzymes LDH ([4]; 800 ppm in diet, 6 weeks): 422 ± 43 units/L | body weight loss or gross histological symptoms of toxicity ([4]; 800 ppm in diet, C57BL/6 mice): do not induce any body weight loss or gross histological symptoms of toxicity | Major Organ Toxicity ([4]; 1,600 ppm in diet, 6 weeks): Liver | Ulceration (Grade) Colon ([4]; 1,600 ppm in diet, 6 weeks): Grade 1 | Ulceration (Grade) Small Intestine ([4]; 1,600 ppm in diet, 6 weeks): Grade 0 | Ulceration (Grade) Stomach ([4]; 1,600 ppm in diet, 6 weeks): Grade 1 | Liver enzymes ALKP ([4]; 1,600 ppm in diet, 6 weeks): 288 ± 24 units/L | Liver enzymes ALT ([4]; 1,600 ppm in diet, 6 weeks): 158 ± 18 units/L | Liver enzymes AST ([4]; 1,600 ppm in diet, 6 weeks): 132 ± 17 units/L | Liver enzymes LDH ([4]; 1,600 ppm in diet, 6 weeks): 589 ± 42 units/L | animals died at the end of six-week exposure ([4]; 1,600 ppm in diet, mice): 3 animals | colonic ulceration at microscopic level ([4]; 1,600 ppm in diet, mice): Grade 1 to 2 | liver toxicity by gross pathology ([4]; 1,600 ppm in diet, mice): modest liver toxicity | stomach ulceration at microscopic level ([4]; 1,600 ppm in diet, mice): Grades 2 to 3 | body weight loss as compared to control diet fed mice body weight gain ([4]; 1,600 ppm in diet, six weeks, mice): ~30% | ulceration ([4]; doses up to 800 ppm in diet): no ulceration | toxicity and body weight gain ([4]; up to 800 ppm in diet, 6 weeks): does not induce any toxicity; also recorded: did not exhibit toxicity | % AdCA Inhibition (incidence) (AOM-induced colon tumors): 60% | % AdCA Inhibition (multiplicity) (AOM-induced colon tumors): 77% | % Inv AdCA Inhibition (incidence) (AOM-induced colon tumors): 85.1% | % Inv AdCA Inhibition (multiplicity) (AOM-induced colon tumors): 86.0% | % Non-Inv AdCA Inhibition (incidence) (AOM-induced colon tumors): 63.0% | % Non-Inv AdCA Inhibition (multiplicity) (AOM-induced colon tumors): 72.9% | % adenoma Inhibition (incidence) (AOM-induced colon tumors): 53% | % adenoma Inhibition (multiplicity) (AOM-induced colon tumors): 38.3% and 38.27% | % of CRC Tumor Inhibition (incidence) (AOM-induced colon tumors): 47.5% | % of CRC Tumor Inhibition (multiplicity) (AOM-induced colon tumors): 64% and 64.05% | AdCA Incidence (% Rats with AdCa) (AOM-induced colon tumors): (33.3%) | AdCA Incidence (rats with AdCa/rats) (AOM-induced colon tumors): 10/30 | AdCA Multiplicity (Mean ± SEM) (AOM-induced colon tumors): 0.37±0.07 Tumors/Rat
